Source: ChEMBL document CHEMBL2321670, “Near native binding of a fluorescent serotonin conjugate to serotonin type 3 receptors” (Bioorg Med Chem Lett, 2013)
Activity calls are given as the source filed them. No cut-off for these calls is given here.

Tests used:
Format in all cases: cell-based
[1] = molecular target: T1, 5-hydroxytryptamine receptor 3A (Homo sapiens) (UniProt P46098); assay: Binding affinity to C-terminal-His6-tagged 5HT3A receptor (unknown origin) expressed in HEK293 cells assessed as decrease in fluorescence at 10 to 500 nM after 2 hrs by fluorimetric analysis
T1 sequence (whole entry): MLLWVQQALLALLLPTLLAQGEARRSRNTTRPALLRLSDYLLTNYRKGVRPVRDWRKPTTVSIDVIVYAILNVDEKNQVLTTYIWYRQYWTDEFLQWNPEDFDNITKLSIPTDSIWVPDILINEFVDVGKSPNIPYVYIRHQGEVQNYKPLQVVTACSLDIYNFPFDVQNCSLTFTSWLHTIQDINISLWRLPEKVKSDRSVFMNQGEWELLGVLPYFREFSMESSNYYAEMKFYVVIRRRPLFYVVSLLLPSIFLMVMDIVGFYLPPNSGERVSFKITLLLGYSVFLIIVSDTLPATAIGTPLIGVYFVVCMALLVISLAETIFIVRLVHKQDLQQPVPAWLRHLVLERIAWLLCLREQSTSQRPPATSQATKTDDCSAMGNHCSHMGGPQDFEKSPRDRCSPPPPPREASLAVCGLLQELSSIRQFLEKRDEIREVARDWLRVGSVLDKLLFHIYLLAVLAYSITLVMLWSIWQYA

[2] = molecular target: T1, 5-hydroxytryptamine receptor 3A (Homo sapiens); assay: Binding affinity to C-terminal-His6-tagged 5HT3A receptor (unknown origin) expressed in HEK293 cells assessed as decrease in fluorescence at 10 to 500 nM after 2 hrs by fluorimetric analysis in presence of granisetron
[3] = molecular target: T2, 5-hydroxytryptamine receptor 3A (Homo sapiens, UniProt P46098); assay: Binding affinity to C-terminal-His6-tagged 5HT3A receptor (unknown origin) expressed in HEK293 cells after 2 hrs by fluorimetric analysis
T2 sequence (P46098 whole entry): T1 sequence (whole entry)

Q: Which results are given for `CN(C)c1ccc2c(-c3ccc(C(=O)NCCCCCNC(=O)CCn4cc(CCN)c5cc(O)ccc54)cc3C(=O)[O-])c3ccc(=[N+](C)C)cc-3oc2c1`?
A: Activity [1]: Active; Activity [2]: inactive; Kd [3]: 0.083 µM
